Experimental data taken from PubChem BioAssay AID1845201 (Molecular Pharmacology Branch, DTP, NCI, 2023).

System: COR L88 complex tumor spheroid viability
Test: Anticancer human tumor COR L88 cell line growth inhibition;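 also: compound exposure lasted 7 days before viability readout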;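 as to viability, T/C: percent of DMSO vehicle-treated spheroids = 100%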
Settings: for IC50: curve of first compound; for viability, T/C: stronger effect = lower value
Method in brief: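 Complex tumor spheroids combined malignant cells with endothelial cells and mesenchymal stem cells. DNA-damaging drugs and DNA repair inhibitors were tested alone and in combination, at half-log dilutions down from clinical Cmax (top 10 microM if Cmax unknown), 0.25% DMSO final.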

[1] = second compound 1 µM, first compound 0.00949 µM
[2] = second compound 1 µM, first compound 0.03 µM
[3] = second compound 1 µM, first compound 0.0949 µM
[4] = second compound 1 µM, first compound 0.3 µM
[5] = second compound 1 µM, first compound 0.949 µM
[6] = second compound 1 µM, first compound 3 µM
[7] = second compound 3.16 µM, first compound 0.00949 µM
[8] = second compound 3.16 µM, first compound 0.03 µM
[9] = second compound 3.16 µM, first compound 0.0949 µM
[10] = second compound 3.16 µM, first compound 0.3 µM
[11] = second compound 3.16 µM, first compound 0.949 µM
[12] = second compound 3.16 µM, first compound 3 µM
[13] = second compound 10 µM, first compound 0.00949 µM
[14] = second compound 10 µM, first compound 0.03 µM
[15] = second compound 10 µM, first compound 0.0949 µM
[16] = second compound 10 µM, first compound 0.3 µM
[17] = second compound 10 µM, first compound 0.949 µM
[18] = second compound 10 µM, first compound 3 µM
[19] = second compound 31.6 µM, first compound 0.00949 µM
[20] = second compound 31.6 µM, first compound 0.03 µM
[21] = second compound 31.6 µM, first compound 0.0949 µM
[22] = second compound 31.6 µM, first compound 0.3 µM
[23] = second compound 31.6 µM, first compound 0.949 µM
[24] = second compound 31.6 µM, first compound 3 µM
[25] = second compound 100 µM, first compound 0.00949 µM
[26] = second compound 100 µM, first compound 0.03 µM
[27] = second compound 100 µM, first compound 0.0949 µM
[28] = second compound 100 µM, first compound 0.3 µM
[29] = second compound 100 µM, first compound 0.949 µM
[30] = second compound 100 µM, first compound 3 µM

## CNCc1ccc(-c2cc(-c3nc(-c4ccc(S(=O)(=O)C(C)C)cc4)cnc3N)on2)cc1 + Cn1nnc2c(C(N)=O)ncn2c1=O
Second compound 1 µM
  IC50: 618 nM
Second compound 3.16 µM
  IC50: 639 nM
Second compound 10 µM
  IC50: 463 nM
Second compound 31.6 µM
  IC50: 448 nM
Second compound 100 µM
  IC50: 386 nM
[1]
  viability, T/C: 99.9%
[2]
  viability, T/C: 97.6%
[3]
  viability, T/C: 102%
[4]
  viability, T/C: 72.1%
[5]
  viability, T/C: 36.8%
[6]
  viability, T/C: 12.9%
[7]
  viability, T/C: 92.9%
[8]
  viability, T/C: 107%
[9]
  viability, T/C: 112%
[10]
  viability, T/C: 81.3%
[11]
  viability, T/C: 33.6%
[12]
  viability, T/C: 11%
[13]
  viability, T/C: 87.4%
[14]
  viability, T/C: 99.7%
[15]
  viability, T/C: 95.3%
[16]
  viability, T/C: 63.8%
[17]
  viability, T/C: 25.9%
[18]
  viability, T/C: 10.8%
[19]
  viability, T/C: 80.7%
[20]
  viability, T/C: 90.9%
[21]
  viability, T/C: 101%
[22]
  viability, T/C: 62.5%
[23]
  viability, T/C: 25.1%
[24]
  viability, T/C: 11.2%
[25]
  viability, T/C: 78.3%
[26]
  viability, T/C: 81%
[27]
  viability, T/C: 76.5%
[28]
  viability, T/C: 58%
[29]
  viability, T/C: 21.3%
[30]
  viability, T/C: 9.59%

## Cc1sc2c(c1C)C(c1ccc(Cl)cc1)=NC(CC(=O)Nc1ccc(O)cc1)c1nnc(C)n1-2 (stereo not given) + Cn1nnc2c(C(N)=O)ncn2c1=O
Second compound 1 µM
  IC50: 499 nM
Second compound 3.16 µM
  IC50: 624 nM
Second compound 10 µM
  IC50: 610 nM
Second compound 31.6 µM
  IC50: 785 nM
Second compound 100 µM
  IC50: 880 nM
[1]
  viability, T/C: 86.5%
[2]
  viability, T/C: 94%
[3]
  viability, T/C: 97.9%
[4]
  viability, T/C: 63.2%
[5]
  viability, T/C: 34.8%
[6]
  viability, T/C: 22.4%
[7]
  viability, T/C: 98.8%
[8]
  viability, T/C: 96.5%
[9]
  viability, T/C: 100%
[10]
  viability, T/C: 70.6%
[11]
  viability, T/C: 38.6%
[12]
  viability, T/C: 21.5%
[13]
  viability, T/C: 88.1%
[14]
  viability, T/C: 94.1%
[15]
  viability, T/C: 103%
[16]
  viability, T/C: 64.7%
[17]
  viability, T/C: 41.2%
[18]
  viability, T/C: 18.8%
[19]
  viability, T/C: 89%
[20]
  viability, T/C: 101%
[21]
  viability, T/C: 104%
[22]
  viability, T/C: 87.7%
[23]
  viability, T/C: 42.7%
[24]
  viability, T/C: 23.8%
[25]
  viability, T/C: 78.4%
[26]
  viability, T/C: 85.4%
[27]
  viability, T/C: 92.2%
[28]
  viability, T/C: 88.1%
[29]
  viability, T/C: 47.4%
[30]
  viability, T/C: 28.2%

## Cn1ncnc1[C@H]1c2n[nH]c(=O)c3cc(F)cc(c23)N[C@@H]1c1ccc(F)cc1 + Cn1nnc2c(C(N)=O)ncn2c1=O
Second compound 1 µM
  IC50: 205 nM
Second compound 3.16 µM
  IC50: 124 nM
Second compound 10 µM
  IC50: 57.7 nM
Second compound 31.6 µM
  IC50: < 9.49 nM
Second compound 100 µM
  IC50: < 9.49 nM
[1]
  viability, T/C: 79.6%
[2]
  viability, T/C: 74%
[3]
  viability, T/C: 58.4%
[4]
  viability, T/C: 45.8%
[5]
  viability, T/C: 39.8%
[6]
  viability, T/C: 36.3%
[7]
  viability, T/C: 79.4%
[8]
  viability, T/C: 65.2%
[9]
  viability, T/C: 51.1%
[10]
  viability, T/C: 45.3%
[11]
  viability, T/C: 38.5%
[12]
  viability, T/C: 39.1%
[13]
  viability, T/C: 58.6%
[14]
  viability, T/C: 54.8%
[15]
  viability, T/C: 45.9%
[16]
  viability, T/C: 43.1%
[17]
  viability, T/C: 40.8%
[18]
  viability, T/C: 36.3%
[19]
  viability, T/C: 50.2%
[20]
  viability, T/C: 46.1%
[21]
  viability, T/C: 44.2%
[22]
  viability, T/C: 39.4%
[23]
  viability, T/C: 38.9%
[24]
  viability, T/C: 30.1%
[25]
  viability, T/C: 44.4%
[26]
  viability, T/C: 41.8%
[27]
  viability, T/C: 35.1%
[28]
  viability, T/C: 35.1%
[29]
  viability, T/C: 32.6%
[30]
  viability, T/C: 33.3%

## O=C(c1cc(Cc2n[nH]c(=O)c3ccccc23)ccc1F)N1CCN(C(=O)C2CC2)CC1 + Cn1nnc2c(C(N)=O)ncn2c1=O
Second compound 1 µM
  IC50: 21300 nM
Second compound 3.16 µM
  IC50: 20900 nM
Second compound 10 µM
  IC50: 9360 nM
Second compound 31.6 µM
  IC50: 3700 nM
Second compound 100 µM
  IC50: 263 nM
[3]
  viability, T/C: 92.8%
[4]
  viability, T/C: 92.8%
[5]
  viability, T/C: 97.3%
[6]
  viability, T/C: 78.4%
Second compound 1 µM, first compound 9.49 µM
  viability, T/C: 61%
Second compound 1 µM, first compound 30 µM
  viability, T/C: 45.4%
[9]
  viability, T/C: 102%
[10]
  viability, T/C: 93.6%
[11]
  viability, T/C: 91.8%
[12]
  viability, T/C: 86.5%
Second compound 3.16 µM, first compound 9.49 µM
  viability, T/C: 54.7%
Second compound 3.16 µM, first compound 30 µM
  viability, T/C: 47.9%
[15]
  viability, T/C: 72.6%
[16]
  viability, T/C: 83.1%
[17]
  viability, T/C: 75.5%
[18]
  viability, T/C: 64.2%
Second compound 10 µM, first compound 9.49 µM
  viability, T/C: 50.6%
Second compound 10 µM, first compound 30 µM
  viability, T/C: 45.1%
[21]
  viability, T/C: 61.8%
[22]
  viability, T/C: 58.1%
[23]
  viability, T/C: 57.5%
[24]
  viability, T/C: 49.5%
Second compound 31.6 µM, first compound 9.49 µM
  viability, T/C: 45.5%
Second compound 31.6 µM, first compound 30 µM
  viability, T/C: 41.2%
[27]
  viability, T/C: 53.9%
[28]
  viability, T/C: 48.4%
[29]
  viability, T/C: 46.5%
[30]
  viability, T/C: 43.7%
Second compound 100 µM, first compound 9.49 µM
  viability, T/C: 39%
Second compound 100 µM, first compound 30 µM
  viability, T/C: 37%
